Measured values: patent publication US9227955B2, “Compound having angiogenesis inhibitory activity, method for preparing same, and pharmaceutical composition comprising same” (Boryung Pharmaceutical Co., Ltd., priority 2011, dated 2016)
Marks after values point to notes of the source that are not given here.

tested on: HUVECs (human umbelical vein endothelial cells); experiment: Transwell assay, VEGF-induced cell migration in HUVECs; type: cell-based; conditions: 25 μM, 10 ng/ml VEGF 24 hrs, n=3
Method: To examine the inhibitory effect of the compounds obtained in the Examples on VEGF (Vascular endothelial growth factor)-induced cell migration in HUVECs (human umbelical vein endothelial cells), a transwell assay was performed as follows.
HUVECs, provided from ATCC (American Type Culture Collection), were incubated in EGM-2 (Endothelial growth Medium-2 Medium) including 10% FBS, penicillin (100 unit/ml) and 100 μg/ml streptomycin sulfate plus various growth factors at 37° C. in an atmosphere of 5% CO2. After the change of the medium with growth factor-free EBM-2 (Endothelial Basal Medium-2 Medium), the cells were subjected to transwell assay.
After for 24 hours, the cells were fixed for 1 min with ethanol and were stained with a dye. Cell migration was evaluated by counting cells which moved through the pores.
In addition, cells were treated with Compound No. 250 (Example 26) at various concentrations given in Table 3, and assayed for cell migration, as conducted with Compounds 103, 110, 218, 273, 275, 276, 290, 312, 428, 442, and 509. The results were compared with those obtained after non-treatment (no treat) or treatment with 10 ng/mL VEGF.
Results were expressed as average numbers (n=3) of HUVECs which moved cross the membrane. Test results are summarized in Table 3 for compounds 103, 110, 218, 273, 275, 276, 290, 312, 428, 442, and 509, and in Table 4 for compound 250.

| Compound | No. of migration cells/field |
| --- | --- |
| COC(=O)c1c(NC(=O)c2cccnc2NC2CCCN(Cc3ccccc3)C2)sc2c1CCNC2 (centres unmarked) [Compound 509, 2-{[2-(1-benzylpiperidin-3-ylamino)pyridine-3-carbonyl]amino}-4,5,6,7-tetrahydrothieno[2,3-c]pyridine-3-carboxylic acid methyl ester] | 7*** cells/field |
| COC(=O)c1c(NC(=O)c2cccnc2NC2CCN(Cc3ccccc3)CC2)sc2c1CCNC2 [Compound 442, 2-{[2-(1-Benzylpiperidin-4-ylamino)pyridine-3-carbonyl]amino}-4,5,6,7-tetrahydro-thieno[2,3-c]pyridine-3-carboxylic acid methyl ester] | 15*** cells/field |
| Cc1cnc(NC(=O)c2cccnc2NC2CCN(Cc3ccccc3)CC2)s1 [Compound 428, 2-(1-Benzylpiperidin-4-ylamino)-N-(5-methylthiazol-2-yl)nicotinamide] | 14.5*** cells/field |
| O=C(Nc1ccc(Oc2ccccc2)cc1)c1cccnc1NC1CCN(Cc2ccccc2)CC1 [Compound 110, 2-(1-Benzylpiperidin-4-ylamino)-N-(4-phenoxyphenyl)nicotinamide] | 10*** cells/field |
| O=C(Nc1cccc(Cl)c1)c1cccnc1NC1CCN(CCO)CC1 [Compound 218, N-(3-Chlorophenyl)-2-[1-(2-hydroxyethyl)piperidin-4-ylamino]nicotinamide] | 7.5*** cells/field |

same assay, conditions: 50 μM, 10 ng/ml VEGF 24 hrs, n=3

| Compound | No. of migration cells/field |
| --- | --- |
| O=C(Nc1cccc(Cl)c1)c1cccnc1SC1CCN(Cc2ccccc2)CC1 [Compound 290, 2-(1-Benzylpiperidin-4-ylsulfanyl)-N-(3-chlorophenyl)nicotinamide] | 14.5*** cells/field |
| O=C(Nc1cccc(Cl)c1)c1cccnc1N[C@H]1CCCNC1 [Compound 275, (S)—N-(3-chlorophenyl)-2-(3-piperidylamino)nicotinamide] | 11*** cells/field |
| O=C(Nc1cccc(Cl)c1)c1cccnc1N[C@H]1CCCN(Cc2ccccc2)C1 [Compound 273, (S)-2-(1-benzylpiperidin-3-ylamino)-N-(3-chlorophenyl)nicotinamide] | 12*** cells/field |
| CC(C)(C)OC(=O)N1CCC[C@H](Nc2ncccc2C(=O)Nc2cccc(Cl)c2)C1 [Compound 276, (S)—N-(3-chlorophenyl)-2-(1-tert-butoxycarbamoylpiperidin-3-ylamino)nicotinamide] | 12.5*** cells/field |
| O=C(Nc1cccc(Cl)c1)c1cc(F)c(Cl)nc1NC1CCN(CCO)CC1 [Compound 312, 6-chloro-N-(3-chlorophenyl)-5-fluoro-2-[1-(2-hydroxyethyl)piperidin-4-ylamino]nicotinamide] | 14*** cells/field |

tested on: not listed separately; experiment: Cell viability MTS assay (cytotoxicity); type: cell-based; conditions: human; A-431 cells, 48 hrs incubation; read-out: IC50, MTS assay for cytotoxicity against A-431
Method: A-431 ([…], human, ATCC CRL-1555™) cells grown in DMEM (Dulbeco's Modified Eagle's Medium, Gibco #11885) were seeded at a density of 1×10^4 cells/well into 96-well plates and incubated at 37° C. for 18 hrs under the supply of 5% CO2 until the cells stably adhered to the bottom. […] After incubation for 48 hrs in the presence of the test compound, the cells were assayed for viability.
The cells in each well was added with 21 μl of a mixture of 20:1 (v/v) of an MTS solution [(3-(4,5-dimethylthiazol-2-yl)-5-(3-carboxymethoxyphenyl)-2-(4-sulfophenyl)-2H-tetrazolium, Promega, Cat#65421; 2 mg/ml] and a PMS solution [Phenazine methosulfate, Sigma #P9625; 1 mg/ml], and incubated for 2 hrs, followed by measuring absorbance at 490 nm on a microplate reader (Molecular device, spectraMax M2). Relative to the control (media), viability by drug concentration was determined from the measurements of formazan, and the results are given in Table 2, below.

| Compound | IC50 at 48 h [µM] |
| --- | --- |
| O=C(Nc1cccc(Cl)c1)c1cccnc1N[C@H]1CCCN(CCO)C1 [Compound 274, (S)—N-(3-chlorophenyl)-2-[1-(2-hydroxyethyl)piperidin-3-ylamino]nicotinamide] | 111 |
| O=C(Nc1cccc(Cl)c1)c1cccnc1SC1CCN(Cc2ccccc2)CC1 [Compound 290, 2-(1-Benzylpiperidin-4-ylsulfanyl)-N-(3-chlorophenyl)nicotinamide] | 54.8 |
| O=C(Nc1cccc(Cl)c1)c1cccnc1N[C@@H]1CCCN(Cc2ccccc2)C1 [Compound 267, (R)-2-(1-benzylpiperidin-3-ylamino)-N-(3-chlorophenyl)nicotinamide] | 20.9 |
| CC1(C)CC(Nc2ncccc2C(=O)Nc2cccc(Cl)c2)CC(C)(C)N1CCO [Compound 242, N-(3-Chlorophenyl)-2-(1-(2-hydroxyethyl)-2,2,6,6-tetramethylpiperidin-4-ylamino)nicotinamide] | 81.9 |
| O=C(Nc1cccc(Cl)c1)c1cccnc1NC1CCN(Cc2cccnc2)CC1 [Compound 249, N-(3-chlorophenyl)-2-[1-(pyridin-3-ylmethyl)piperidin-4-ylamino]nicotinamide] | 102 |
| CC1(C)CC(Nc2ncccc2C(=O)Nc2cccc(Cl)c2)CC(C)(C)N1 [Compound 201, N-(3-Chlorophenyl)-2-(2,2,6,6-tetramethylpiperidin-4-ylamino)nicotinamide] | 54.5 |
| O=C(Nc1cccc(Cl)c1)c1cccnc1N[C@H]1CCCNC1 [Compound 275, (S)—N-(3-chlorophenyl)-2-(3-piperidylamino)nicotinamide] | 94.6 |
| O=C(Nc1cccc(Cl)c1)c1cccnc1N[C@H]1CCCN(Cc2ccccc2)C1 [Compound 273, (S)-2-(1-benzylpiperidin-3-ylamino)-N-(3-chlorophenyl)nicotinamide] | 40.9 |
| C=CCN1CCC(Nc2ncccc2C(=O)Nc2cccc(Cl)c2)CC1 [Compound 243] | 170 |
| CC(C)(C)OC(=O)N1CCC(Nc2ncccc2C(=O)Nc2cccc(Cl)c2)CC1 [Compound 208, N-(3-Chlorophenyl)-2-(1-tert-butoxycarbamoylpiperidin-4-ylamino)nicotinamide] | 86.1 |
| Cc1cnc(NC(=O)c2cccnc2NC2CCN(Cc3ccccc3)CC2)s1 [Compound 428, 2-(1-Benzylpiperidin-4-ylamino)-N-(5-methylthiazol-2-yl)nicotinamide] | 125 |
| O=C(NC(Cc1ccccc1)c1ccccc1)c1cccnc1NC1CCN(Cc2ccccc2)CC1 (centres unmarked) [Compound 426, 2-(1-Benzylpiperidin-4-ylamino)-N-(1,2-diphenylethyl)nicotinamide] | 39.7 |
| O=C(Nc1ccc(Oc2ccccc2)cc1)c1cccnc1NC1CCN(Cc2ccccc2)CC1 [Compound 110, 2-(1-Benzylpiperidin-4-ylamino)-N-(4-phenoxyphenyl)nicotinamide] | 22.2 |
| CCCCC(CC)CNC(=O)c1cccnc1NC1CC(C)(C)NC(C)(C)C1 (centres unmarked) [Compound 517, N-(2-ethylhexyl)-2-(2,2,6,6-tetramethylpiperidin-4-ylamino)nicotinamide] | 50.7 |
| CCN(CC)CCN1CCC(Nc2ncccc2C(=O)Nc2cccc(Cl)c2)CC1 [Compound 244, N-(3-chlorophenyl)-2-[1-(2-N,N-diethylamino-ethyl)piperidin-4-ylamino]nicotinamide] | 94.6 |
| CC1(C)CNc2cc(NC(=O)c3cccnc3NC3CCN(Cc4ccccc4)CC3)ccc21 [Compound 117, 2-(1-Benzylpiperidin-4-ylamino)-N-(3,3-dimethyl-2,3-dihydro-1H-indol-6-yl)nicotinamide] | 91.1 |
| O=C(Nc1cccc(Cl)c1)c1cccnc1NC1CCN(C(C(=O)O)C(=O)O)CC1 [Compound 246, 2-(4-(3-(3-Chlorophenylcarbamoyl)pyridin-2-ylamino)piperidin-1-yl)maloic acid] | 101 |
| O=C(Nc1cccc(Cl)c1)c1ccc(Cl)nc1NC1CCN(Cc2ccccc2)CC1 [Compound 301, 2-(1-Benzylpiperidin-4-ylamino)-6-chloro-N-(3-chlorophenyl)nicotinamide] | 67.6 |
| O=C(Nc1ccc(Oc2ccccc2)cc1)c1cccnc1Nc1ccc(Oc2ccccc2)cc1 [Compound 111, 2-(4-Phenoxyanilino)-N-(4-phenoxyphenyl)nicotinamide] | 135 |
| CCCCC(CC)CNC(=O)c1ccc(Cl)nc1NC1CCN(CCO)CC1 (centres unmarked) [Compound 515, 6-Chloro-N-(2-ethylhexyl)-2-[1-(2-hydroxyethyl)piperidin-4-ylamino]nicotinamide] | 23.8 |
| CCCCC(CC)CNC(=O)c1cccnc1NC1CCN(Cc2ccccc2)CC1 (centres unmarked) [Compound 436, 2-(1-Benzylpiperidin-4-ylamino)-N-(2-ethylhexyl)nicotinamide] | 34 |
| O=C(Nc1cccc(Cl)c1)c1ccc(Cl)nc1NC1CCN(CCO)CC1 [Compound 311] | 62.3 |
| O=C(Nc1cccc(Cl)c1)c1cc(F)c(Cl)nc1NC1CCN(Cc2ccccc2)CC1 [Compound 302, 2-(1-benzylpiperidin-4-ylamino)-6-chloro-N-(3-chlorophenyl)-5-fluoronicotinamide] | 38.1 |
| O=C(Nc1cccc(Cl)c1)c1cccnc1N[C@@H]1CCCNC1 [Compound 269, (R)—N-(3-chlorophenyl)-2-(3-piperidylamino)nicotinamide] | 88.9 |
| COc1ccc(NC(=O)c2cccnc2NC2CCN(Cc3ccccc3)CC2)cc1OC [Compound 443, 2-(1-Benzylpiperidin-4-ylamino)-N-(3,4-dimethoxyphenyl)nicotinamide] | 140 |
| O=C(Nc1cccc(Cl)c1)c1cccnc1Nc1ccc(Oc2ccccc2)cc1 [Compound 104, N-(3-Chlorophenyl)-2-(4-phenoxyanilino)nicotinamide] | 28.6 |
| O=C(Nc1cccc(Cl)c1)c1cc(F)c(Cl)nc1NC1CCN(CCO)CC1 [Compound 312, 6-chloro-N-(3-chlorophenyl)-5-fluoro-2-[1-(2-hydroxyethyl)piperidin-4-ylamino]nicotinamide] | 20.7 |
| O=C(Nc1cccc(Cl)c1)c1cccnc1NN1CCN(CCO)CC1 [Compound 241, N-(3-Chlorophenyl)-2-[4-(2-hydroxyethyl)piperazin-1-ylamino)nicotinamide] | 164 |
